Laboratory results reported in PubChem BioAssay (NCI).
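Values below derive from 48-hour exposures of cells grown in 96-well plates, with endpoints linearly interpolated between the two concentrations bracketing the appropriate inhibition level. GI50 marks 50% less growth. TGI is the concentration that stops growth completely.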

Columns and labels:
Experiment in all cases: inhibition of tumour cell growth, NCI panel, 48 h
[1] = tested on: A549 NSCLC
[2] = tested on: COLO 205 colon
[3] = tested on: MALME-3M melanoma
[4] = tested on: OVCAR-4 ovarian
[5] = tested on: OVCAR-5 ovarian
[6] = tested on: SF-539 CNS
[7] = tested on: SN12C renal
[8] = tested on: SNB-19 CNS
[9] = tested on: SNB-75 CNS
[10] = tested on: UACC-257 melanoma

`Cc1cccc2nc3c(C(=O)NCCN(C)C)cccc3cc12` showed a TGI [1] of 3.5 µM, a TGI [2] of 2.62 µM and a TGI [3] of 2.78 µM. It also gave a TGI [4] of 7.46 µM, a TGI [5] of 6.59 µM and a TGI [6] of 4.84 µM. For the same compound, the TGI [7] was 5.98 µM, the TGI [8] was 5.2 µM and the TGI [9] was 6.75 µM. It also gave a TGI [10] of 3.44 µM.
`CNC(=O)OC(C)CN1c2ccccc2Sc2ccc(Cl)cc21` (stereo not drawn) gave a TGI [1] of over 10 µM, a TGI [2] of over 10 µM and a TGI [3] of over 10 µM. The TGI [4] was over 10 µM, the TGI [5] was over 10 µM and the TGI [6] was over 10 µM. For the same compound, the TGI [7] was over 10 µM, the TGI [8] was over 10 µM and the TGI [9] was over 10 µM.
`CCS(=O)(=O)Nc1ccc(Nc2c3ccccc3nc3ccccc23)c(OC)c1` gave a TGI [1] of 1.7 µM, a TGI [2] of 7.28 µM and a TGI [3] of 2.37 µM. The TGI [4] was 16.1 µM, the TGI [5] was 19.4 µM and the TGI [6] was 4.38 µM. It also gave a TGI [7] of 3.86 µM, a TGI [8] of 6.41 µM and a TGI [9] of 3.01 µM. For the same compound, the TGI [10] was 16.9 µM.
`COc1cc(C2C(C(=O)O)=C(CO)Oc3cc4c(cc32)OCO4)cc(OC)c1O` (stereo not drawn) gave a TGI [1] of over 100 µM, a TGI [2] of over 100 µM and a TGI [3] of over 100 µM. The TGI [4] was over 100 µM, the TGI [6] was over 100 µM and the TGI [7] was over 100 µM. The TGI [8] was over 100 µM, the TGI [9] was over 100 µM and the TGI [10] was over 100 µM.
`CCOC(=O)CSc1nc(N)c2c(-c3ccc(OC)c(OC)c3)c3c(nc2n1)CCCC3` showed a TGI [1] of over 100 µM, a TGI [2] of over 100 µM and a TGI [3] of over 100 µM. The TGI [4] was over 100 µM, the TGI [5] was over 100 µM and the TGI [7] was over 100 µM. The TGI [8] was over 100 µM, the TGI [9] was 32.6 µM and the TGI [10] was over 100 µM.
`CC1SC(c2ccccc2)N(CCc2cccs2)C1=O` (stereo not drawn) gave a GI50 [1] of 4.16 µM, a TGI [1] of 15.1 µM and a GI50 [2] of 3.2 µM. For the same compound, the TGI [2] was 10.8 µM, the GI50 [3] was 5.47 µM and the TGI [3] was 26.1 µM. For the same compound, the GI50 [4] was 2.45 µM, the TGI [4] was 13 µM and the GI50 [5] was 10.3 µM. For the same compound, the TGI [5] was 27 µM, the GI50 [6] was 5.14 µM and the TGI [6] was 19.2 µM. It also gave a GI50 [7] of 5.43 µM, a TGI [7] of 20.1 µM and a GI50 [8] of 5.06 µM. For the same compound, the TGI [8] was 19.9 µM, the GI50 [9] was 3.01 µM and the TGI [9] was 17.8 µM. The GI50 [10] was 4.73 µM and the TGI [10] was 14.5 µM.
Compound `COc1ccc2nc(-c3ccc(-c4noc(-c5cc(OC)c(OC)c(OC)c5)n4)cc3)[nH]c2c1` has a GI50 [1] of 5.65 µM, a TGI [1] of 20.3 µM and a GI50 [3] of 1.67 µM. The TGI [3] was 7.51 µM, the GI50 [4] was 1.88 µM and the TGI [4] was 4.79 µM. The GI50 [5] was 16.7 µM, the TGI [5] was 53.8 µM and the GI50 [6] was 2 µM. It also gave a TGI [6] of 3.83 µM, a GI50 [7] of 13.2 µM and a TGI [7] of 31.3 µM. For the same compound, the GI50 [8] was 12.7 µM, the TGI [8] was 36.8 µM and the GI50 [9] was 12.5 µM. It also gave a TGI [9] of 27.4 µM, a GI50 [10] of 17.1 µM and a TGI [10] of 46.9 µM.
`CCOC(=O)c1nc2ccc(Cl)cc2c2c1Cc1ccccc1-2` gave a TGI [1] of over 100 µM, a TGI [2] of over 100 µM and a TGI [4] of over 100 µM. It also gave a TGI [5] of over 100 µM, a TGI [6] of over 100 µM and a TGI [7] of over 100 µM. It also gave a TGI [8] of over 100 µM, a TGI [9] of over 100 µM and a TGI [10] of over 100 µM.
`CC(=O)Nc1cc([As](=O)(O)O)ccc1O` showed a TGI [1] of over 100 µM, a TGI [2] of over 100 µM and a TGI [3] of over 100 µM. The TGI [4] was over 100 µM, the TGI [5] was over 100 µM and the TGI [6] was over 100 µM. The TGI [7] was over 100 µM, the TGI [8] was over 100 µM and the TGI [9] was over 100 µM. The TGI [10] was over 100 µM.
Work on `CN(C)CC(=O)Nc1ccc(Cn2nnc3c2C(=O)c2nnn(Cc4ccc(NC(=O)CN(C)C)cc4)c2C3=O)cc1` yielded a GI50 [2] of 0.087 µM, a TGI [2] of 0.253 µM and a GI50 [3] of 0.115 µM. For the same compound, the TGI [3] was 0.266 µM, the GI50 [4] was 0.0473 µM and the TGI [4] was 0.179 µM. For the same compound, the GI50 [5] was 0.234 µM, the TGI [5] was 0.578 µM and the GI50 [6] was 0.197 µM. For the same compound, the TGI [6] was 0.502 µM, the GI50 [9] was 0.172 µM and the TGI [9] was 0.342 µM. For the same compound, the GI50 [10] was 0.172 µM and the TGI [10] was 0.339 µM.
`COc1ccc(/C(=C2/O[C@@H]([C@H]3COC(C)(C)O3)[C@H]3OC(C)(C)O[C@@H]23)c2cc(OC)c(OC)c(OC)c2)cc1O` gave a GI50 [1] of 22.7 µM, a TGI [1] of over 100 µM and a GI50 [2] of 27.3 µM. It also gave a TGI [2] of 63.7 µM, a GI50 [3] of 9.96 µM and a TGI [3] of over 100 µM. The GI50 [4] was 37.5 µM, the TGI [4] was over 100 µM and the GI50 [5] was 59.6 µM. For the same compound, the TGI [5] was over 100 µM, the GI50 [6] was 3.15 µM and the TGI [6] was 8.75 µM. The GI50 [7] was 8.9 µM, the TGI [7] was over 100 µM and the GI50 [8] was 5.33 µM. The TGI [8] was over 100 µM, the GI50 [9] was 6.36 µM and the TGI [9] was over 100 µM. For the same compound, the GI50 [10] was 39.4 µM and the TGI [10] was over 100 µM.
Work on `CN1CC[C@@]2(c3cccc(O)c3)CC(=O)/C(=C/c3ccccc3)[C@H]1C2` yielded a TGI [1] of 36.9 µM, a TGI [2] of 30.3 µM and a TGI [3] of 33.5 µM. The TGI [4] was 22.2 µM, the TGI [5] was 32.2 µM and the TGI [6] was 35.3 µM. The TGI [7] was 19.4 µM, the TGI [8] was 19.5 µM and the TGI [9] was 7.09 µM. The TGI [10] was 30.8 µM.
With `COc1ccc2nc(N/N=C/C(C)=N/Nc3cc(C)c4cc(OC)ccc4n3)cc(C)c2c1` the TGI [1] was 45.7 µM, the TGI [2] was 57.9 µM and the TGI [3] was 76.4 µM. For the same compound, the TGI [4] was 35.6 µM, the TGI [5] was 49.5 µM and the TGI [6] was 34.7 µM. It also gave a TGI [7] of 51.4 µM, a TGI [8] of 55.8 µM and a TGI [9] of 47.7 µM. For the same compound, the TGI [10] was over 86.6 µM.
